Assays:
Test in all cases: Ba/F3 drug screening, Cell Titer Glo, IC50 Mut/WT
Type in all cases: cell-based
[1] = molecular target: T1, EGFR E709K L858R (Homo sapiens, UniProt P00533, E709K/L858R); details: Classical-Like, 72 hours
T1 construct: expressed in transfected cells; host or cells: Ba/F3 cells, retroviral pBabe-Puro vector
Method: (§1) Data represent the ratio of the IC50 value for a given TKI for cells with a classical-like EGFR mutation to the IC50 value for cells with wildtype EGFR.
(§2) Ba/F3 cell generation, drug screening, and IC50 approximations. Ba/F3 cells were obtained as a gift from Dr. Gordon Mills (MD Anderson Cancer Center), and maintained in RPMI (Sigma) containing 10% FBS, 1% penicillin/streptomycin, and 10 ng/ml recombinant mIL-3 (R&D Biosystems). To establish stable Ba/F3 cell lines, Ba/F3 cells were transduced with retroviruses containing mutant EGFR plasmids for 12-24 hours.
(§3) After 48-72 hours of transduction, 2 μg/ml puromycin (Invitrogen) was added to Ba/F3 cell lines in complete RPMI. To select for EGFR positive cell lines, cells were stained with PE-EGFR (Biolegend) and sorted by FACS. After sorting, EGFR positive cells were maintained in RPMI containing 10% FBS, 1% penicillin/streptomycin, and 1 ng/ml EGF to support cell viability. […] Shortly, cells were plated in 384-well plates (Greiner Bio-One) at 2000-3000 cells per well in technical triplicate. Seven different concentrations of TKIs or DMSO vehicle were added to reach a final volume of 40 μL per well. After 72 hours, 11 μL of Cell Titer Glo (Promega) was added to each well. Plates were incubated for a minimum of 10 minutes, and bioluminescence was determined using a FLUOstar OPTIMA plate reader (BMG LABTECH). Raw bioluminescence values were normalized to DMSO control treated cells, and values were plotted in GraphPad Prism. […] Drug screens were performed in technical triplicate on each plate and either duplicate or triplicate biological replicates.

[2] = molecular target: T2, EGFR S720P (Homo sapiens, UniProt P00533, S720P); details: Classical-Like, 72 hours
T2 construct: expressed in transfected cells; host or cells: Ba/F3 cells, retroviral pBabe-Puro vector (vector made by GeneScript from EGFR WT)
Method: as §1, §2, §3

[3] = molecular target: T3, EGFR T725M (Homo sapiens, UniProt P00533, T725M); details: Classical-Like, 72 hours
T3 construct: expressed in transfected cells; host or cells: Ba/F3 cells, retroviral pBabe-Puro vector (vector made by GeneScript from EGFR WT)

[4] = molecular target: T4, EGFR K754E (Homo sapiens, UniProt P00533, K754E); details: Classical-Like, 72 hours
T4 construct: expressed in transfected cells; host or cells: Ba/F3 cells, retroviral pBabe-Puro vector

[5] = molecular target: T5, EGFR D761N (Homo sapiens, UniProt P00533, D761N); details: Classical-Like, 72 hours
T5 construct: expressed in transfected cells; host or cells: Ba/F3 cells, retroviral pBabe-Puro vector
Method: as §1, §2, §3

[6] = molecular target: T6, EGFR S768dupSVD V769M (Homo sapiens, UniProt P00533, INS768MDS/V769M); details: Ex20, 72 hours
T6 construct: expressed in transfected cells; host or cells: Ba/F3 cells, retroviral pBabe-Puro vector (vector made by GeneScript from EGFR S768dupSVD, c.2305G > A)

[7] = molecular target: T7, EGFR D770insNPG (Homo sapiens, UniProt P00533, INS770NPG); details: Ex20, 72 hours
T7 construct: expressed in transfected cells; host or cells: Ba/F3 cells, retroviral pBabe-Puro vector

[8] = molecular target: T8, EGFR H773insNPH (Homo sapiens, UniProt P00533, INS773NPH); details: Ex20, 72 hours
T8 construct: expressed in transfected cells; host or cells: Ba/F3 cells, retroviral pBabe-Puro vector
Method: (§4) Data represent the ratio of the IC50 value for a given TKI for cells with an ex20ins EGFR mutation to the IC50 value for cells with wildtype EGFR.
as §2
(§5) After 48-72 hours of transduction, 2 μg/ml puromycin (Invitrogen) was added to Ba/F3 cell lines in complete RPMI. To select for EGFR positive cell lines, cells were stained with PE-EGFR (Biolegend) and sorted by FACS. After sorting, EGFR positive cells were maintained in RPMI containing 10% FBS, 1% penicillin/streptomycin, and 1 ng/ml EGF to support cell viability. Drug screening was performed as previously described^41,42. Shortly, cells were plated in 384-well plates (Greiner Bio-One) at 2000-3000 cells per well in technical triplicate. Seven different concentrations of TKIs or DMSO vehicle were added to reach a final volume of 40 μL per well. After 72 hours, 11 μL of Cell Titer Glo (Promega) was added to each well. Plates were incubated for a minimum of 10 minutes, and bioluminescence was determined using a FLUOstar OPTIMA plate reader (BMG LABTECH). Raw bioluminescence values were normalized to DMSO control treated cells, and values were plotted in GraphPad Prism. […] Drug screens were performed in technical triplicate on each plate and either duplicate or triplicate biological replicates. […] Statistical differences between groups were determined by ANOVA as described in the figure legends.

[9] = molecular target: T9, EGFR N771dupN (Homo sapiens, UniProt P00533, DUP771-771); details: Ex20, 72 hours
T9 construct: expressed in transfected cells; host or cells: Ba/F3 cells, retroviral pBabe-Puro vector

[10] = molecular target: T10, EGFR N771dupN G724S (Homo sapiens, UniProt P00533, DUP771-771/G724S); details: Ex20, 72 hours
T10 construct: expressed in transfected cells; host or cells: Ba/F3 cells, retroviral pBabe-Puro vector (vector made by GeneScript from EGFR G724S, c.2313_2314insAAC)
Method: as §4, §2, §5

[11] = molecular target: T11, EGFR L858R/T790M (Homo sapiens, UniProt P00533, L858R/T790M); details: T790M-like-3S, 72 hours
T11 construct: expressed in transfected cells; host or cells: Ba/F3
Method: (§6) Data represent the ratio of the IC50 value for a given TKI for cells with a T790M-like-3S EGFR mutation to the IC50 value for cells with wildtype EGFR.
as §2
(§7) After 48-72 hours of transduction, 2 μg/ml puromycin (Invitrogen) was added to Ba/F3 cell lines in complete RPMI. To select for EGFR positive cell lines, cells were stained with PE-EGFR (Biolegend) and sorted by FACS. After sorting, EGFR positive cells were maintained in RPMI containing 10% FBS, 1% penicillin/streptomycin, and 1 ng/ml EGF to support cell viability. Drug screening was performed as previously described^41,42. Shortly, cells were plated in 384-well plates (Greiner Bio-One) at 2000-3000 cells per well in technical triplicate. Seven different concentrations of TKIs or DMSO vehicle were added to reach a final volume of 40 μL per well. After 72 hours, 11 μL of Cell Titer Glo (Promega) was added to each well. Plates were incubated for a minimum of 10 minutes, and bioluminescence was determined using a FLUOstar OPTIMA plate reader (BMG LABTECH). Raw bioluminescence values were normalized to DMSO control treated cells, and values were plotted in GraphPad Prism. […] Drug screens were performed in technical triplicate on each plate and either duplicate or triplicate biological replicates.

[12] = molecular target: T12, EGFR Ex19del T790M (Homo sapiens, UniProt P00533, DEL746-750/T790M); details: T790M-like-3S, 72 hours
T12 construct: expressed in transfected cells; host or cells: Ba/F3
Method: as §6, §2, §7

[13] = molecular target: T13, EGFR Ex19del/T790M/G724S (Homo sapiens, UniProt P00533, DEL746-750/G724S/T790M); details: T790M-like-3S, 72 hours
T13 construct: expressed in transfected cells; host or cells: Ba/F3

[14] = molecular target: T14, EGFR G724S T790M (Homo sapiens, UniProt P00533, G724S/T790M); details: T790M-like-3R, 72 hours
T14 construct: expressed in transfected cells; host or cells: Ba/F3
Method: (§8) Data represent the ratio of the IC50 value for a given TKI for cells with a T790M-like-3R EGFR mutation to the IC50 value for cells with wildtype EGFR.
as §2
(§9) After 48-72 hours of transduction, 2 μg/ml puromycin (Invitrogen) was added to Ba/F3 cell lines in complete RPMI. To select for EGFR positive cell lines, cells were stained with PE-EGFR (Biolegend) and sorted by FACS. After sorting, EGFR positive cells were maintained in RPMI containing 10% FBS, 1% penicillin/streptomycin, and 1 ng/ml EGF to support cell viability. […] Shortly, cells were plated in 384-well plates (Greiner Bio-One) at 2000-3000 cells per well in technical triplicate. Seven different concentrations of TKIs or DMSO vehicle were added to reach a final volume of 40 μL per well. After 72 hours, 11 μL of Cell Titer Glo (Promega) was added to each well. Plates were incubated for a minimum of 10 minutes, and bioluminescence was determined using a FLUOstar OPTIMA plate reader (BMG LABTECH). Raw bioluminescence values were normalized to DMSO control treated cells, and values were plotted in GraphPad Prism. […] Drug screens were performed in technical triplicate on each plate and either duplicate or triplicate biological replicates. […] Statistical differences between groups were determined by ANOVA as described in the figure legends.

[15] = molecular target: T15, EGFR L858R/T790M/L718Q (Homo sapiens, UniProt P00533, L718Q/L858R/T790M); details: T790M-like-3R, 72 hours
T15 construct: expressed in transfected cells; host or cells: Ba/F3
Method: as §8, §2, §9

[16] = molecular target: T16, EGFR E709A G719S (Homo sapiens, UniProt P00533, E709A/G719S); details: Ba/F3 cells, EGFR E709A G719S (PACC), Mut/WT
T16 construct: expressed in transfected cells; host or cells: Ba/F3

[17] = molecular target: T17, EGFR E709K (Homo sapiens, UniProt P00533, E709K); details: Ba/F3 cells, EGFR E709K (PACC), Mut/WT
T17 construct: expressed in transfected cells; host or cells: Ba/F3

[18] = molecular target: T18, EGFR G719A/R776C (Homo sapiens, UniProt P00533, G719A/R776C); details: Ba/F3 cells, EGFR G719A/R776C (PACC), Mut/WT
T18 construct: expressed in transfected cells; host or cells: Ba/F3
Method: (§10) Data represent the ratio of the IC50 value for a given TKI for cells with a PACC EGFR mutation to the IC50 value for cells with wildtype EGFR.
as §2, §7

[19] = molecular target: T19, EGFR G724S (Homo sapiens, UniProt P00533, G724S); details: Ba/F3 cells, EGFR G724S (PACC), Mut/WT
T19 construct: expressed in transfected cells; host or cells: Ba/F3

[20] = system: EGFR I740dupIPVAK; details: Ba/F3 cells, EGFR I740dupIPVAK (PACC), Mut/WT
[21] = molecular target: T20, EGFR S768I (Homo sapiens, UniProt P00533, S768I); details: Ba/F3 cells, EGFR S768I (PACC), Mut/WT
T20 construct: expressed in transfected cells; host or cells: Ba/F3
Method: as §10, §2, §5

[22] = molecular target: T21, EGFR R776C (Homo sapiens, UniProt P00533, R776C); details: Ba/F3 cells, EGFR R776C (PACC), Mut/WT
T21 construct: host or cells: Ba/F3

[23] = molecular target: T22, EGFR L858R/L718V (Homo sapiens, UniProt P00533, L718V/L858R); details: Ba/F3 cells, EGFR L858R/L718V (PACC), Mut/WT
T22 construct: host or cells: Ba/F3

[24] = molecular target: T23, EGFR Ex19del/L792H (Homo sapiens, UniProt P00533, DEL746-750/L792H); details: Ba/F3 cells, EGFR Ex19del/L792H (PACC), Mut/WT
T23 construct: expressed in transfected cells; host or cells: Ba/F3

[25] = molecular target: T24, EGFR Ex19del/C797S (Homo sapiens, UniProt P00533, C797S/DEL746-750); details: Ba/F3 cells, EGFR Ex19del/C797S (PACC), Mut/WT
T24 construct: expressed in transfected cells; host or cells: Ba/F3

[26] = molecular target: T25, EGFR Ex19del T854I (Homo sapiens, UniProt P00533, DEL746-750/T854I); details: Ba/F3 cells, EGFR Ex19del T854I (PACC), Mut/WT
T25 construct: expressed in transfected cells; host or cells: Ba/F3 (retroviral transduction, pBabe-Puro based vectors)
Method: as §10, §2, §7

ratio of IC50 for cells with mutant EGFR to IC50 for cells with wildtype EGFR (Mut/WT) [1]: 0.01609
ratio of IC50 for cells with mutant EGFR to IC50 for cells with wildtype EGFR (Mut/WT) [2]: 0.003331
ratio of IC50 for cells with mutant EGFR to IC50 for cells with wildtype EGFR (Mut/WT) [3]: 0.03664
ratio of IC50 for cells with mutant EGFR to IC50 for cells with wildtype EGFR (Mut/WT) [4]: 0.008838
ratio of IC50 for cells with mutant EGFR to IC50 for cells with wildtype EGFR (Mut/WT) [5]: 0.1654
ratio of IC50 for cells with mutant EGFR to IC50 for cells with wildtype EGFR (Mut/WT) [6]: 0.5379
ratio of IC50 for cells with mutant EGFR to IC50 for cells with wildtype EGFR (Mut/WT) [7]: 0.31
ratio of IC50 for cells with mutant EGFR to IC50 for cells with wildtype EGFR (Mut/WT) [8]: 0.4274
ratio of IC50 for cells with mutant EGFR to IC50 for cells with wildtype EGFR (Mut/WT) [9]: 0.4208
ratio of IC50 for cells with mutant EGFR to IC50 for cells with wildtype EGFR (Mut/WT) [10]: 0.4165
ratio of IC50 for cells with mutant EGFR to IC50 for cells with wildtype EGFR (Mut/WT) [11]: 0.0007936
ratio of IC50 for cells with mutant EGFR to IC50 for cells with wildtype EGFR (Mut/WT) [12]: 0.0004059
ratio of IC50 for cells with mutant EGFR to IC50 for cells with wildtype EGFR (Mut/WT) [13]: 0.005075
ratio of IC50 for cells with mutant EGFR to IC50 for cells with wildtype EGFR (Mut/WT) [14]: 0.01985
ratio of IC50 for cells with mutant EGFR to IC50 for cells with wildtype EGFR (Mut/WT) [15]: 0.6196
ratio of the IC50 value for cells with a PACC EGFR mutation to the IC50 value for cells with wildtype EGFR [16]: 0.1443
ratio of the IC50 value for cells with a PACC EGFR mutation to the IC50 value for cells with wildtype EGFR [17]: 0.05562
ratio of the IC50 value for cells with a PACC EGFR mutation to the IC50 value for cells with wildtype EGFR [18]: 0.1805
ratio of the IC50 value for cells with a PACC EGFR mutation to the IC50 value for cells with wildtype EGFR [19]: 0.1827
ratio of the IC50 value for cells with a PACC EGFR mutation to the IC50 value for cells with wildtype EGFR [20]: 0.1715
ratio of the IC50 value for cells with a PACC EGFR mutation to the IC50 value for cells with wildtype EGFR [21]: 0.007216
ratio of the IC50 value for cells with a PACC EGFR mutation to the IC50 value for cells with wildtype EGFR [22]: 0.5131
ratio of the IC50 value for cells with a PACC EGFR mutation to the IC50 value for cells with wildtype EGFR [23]: 0.8629
ratio of the IC50 value for cells with a PACC EGFR mutation to the IC50 value for cells with wildtype EGFR [24]: 0.01923
ratio of the IC50 value for cells with a PACC EGFR mutation to the IC50 value for cells with wildtype EGFR [25]: 2.14
ratio of the IC50 value for cells with a PACC EGFR mutation to the IC50 value for cells with wildtype EGFR [26]: 1.31
Compound: C=CC(=O)Nc1cccc(Oc2nc(Nc3ccc(N4CCN(C)CC4)cc3)nc3ccsc23)c1 [Olmutinib]

Source: patent publication US20240384350A1, “METHODS OF TREATING CANCER WITH KINASE INHIBITORS” (BOARD OF REGENTS, THE UNIVERSITY OF TEXAS SYSTEM, priority 2021, published 2024)
